Data: patent publication US20240166635A1, “AMINOHETEROARYL KINASE INHIBITORS” (Anrui Biomedical Technology (Guangzhou) Co.,Ltd., priority 2020, published 2024)

Columns and labels:
Assay type in all cases: biochemical
CDK9/CyclinT1 = CDK9/CyclinT1 (Homo sapiens (Human), UniProt P50750); experiment: CDK9/CyclinT1 kinase inhibitory activity (Caliper mobility shift); details: read-out: CDK9/Cyclin T1 IC50
CDK1/CyclinB = CDK1/CyclinB (Homo sapiens (Human), UniProt P06493); experiment: CDK1/CyclinB kinase inhibitory activity (Caliper mobility shift); details: read-out: CDK1/Cyclin B1 IC50
CDK2/CyclinE1 = CDK2/CyclinE1 (Homo sapiens (Human), UniProt P24941); experiment: CDK2/CyclinE1 kinase inhibitory activity (Caliper mobility shift); details: read-out: CDK2/Cyclin El IC50

CDK1/CyclinB, sequence (P06493 whole entry): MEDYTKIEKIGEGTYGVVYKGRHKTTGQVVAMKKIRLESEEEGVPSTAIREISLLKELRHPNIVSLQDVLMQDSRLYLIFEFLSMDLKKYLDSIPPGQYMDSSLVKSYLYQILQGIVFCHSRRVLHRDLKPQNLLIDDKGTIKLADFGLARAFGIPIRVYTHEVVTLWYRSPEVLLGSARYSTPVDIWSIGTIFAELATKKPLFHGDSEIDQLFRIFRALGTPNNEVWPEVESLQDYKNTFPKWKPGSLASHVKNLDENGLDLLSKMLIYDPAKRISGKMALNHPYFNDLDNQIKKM
CDK1/CyclinB, sequence (P14635 whole entry partner): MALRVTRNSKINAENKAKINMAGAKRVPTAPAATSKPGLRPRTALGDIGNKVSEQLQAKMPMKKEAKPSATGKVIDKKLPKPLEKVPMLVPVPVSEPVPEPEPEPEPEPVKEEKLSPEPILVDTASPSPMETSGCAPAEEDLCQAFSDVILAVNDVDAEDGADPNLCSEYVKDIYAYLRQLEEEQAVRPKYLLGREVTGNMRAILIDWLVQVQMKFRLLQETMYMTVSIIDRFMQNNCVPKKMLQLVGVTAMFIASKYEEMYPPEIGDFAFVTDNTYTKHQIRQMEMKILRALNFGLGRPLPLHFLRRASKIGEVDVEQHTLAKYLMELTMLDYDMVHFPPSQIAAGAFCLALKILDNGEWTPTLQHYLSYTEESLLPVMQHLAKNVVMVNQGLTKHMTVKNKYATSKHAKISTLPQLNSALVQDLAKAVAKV
CDK9/CyclinT1, sequence (P50750 whole entry): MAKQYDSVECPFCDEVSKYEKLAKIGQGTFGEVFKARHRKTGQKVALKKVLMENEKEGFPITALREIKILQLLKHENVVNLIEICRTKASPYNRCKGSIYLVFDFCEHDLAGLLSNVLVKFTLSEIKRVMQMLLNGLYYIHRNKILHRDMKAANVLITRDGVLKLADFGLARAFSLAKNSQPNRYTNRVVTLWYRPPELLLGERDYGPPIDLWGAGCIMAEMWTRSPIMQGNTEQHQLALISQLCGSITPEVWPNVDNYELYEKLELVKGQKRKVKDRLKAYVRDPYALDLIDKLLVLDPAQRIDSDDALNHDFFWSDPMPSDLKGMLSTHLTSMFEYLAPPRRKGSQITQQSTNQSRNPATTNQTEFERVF
CDK9/CyclinT1, sequence (O60563 whole entry partner): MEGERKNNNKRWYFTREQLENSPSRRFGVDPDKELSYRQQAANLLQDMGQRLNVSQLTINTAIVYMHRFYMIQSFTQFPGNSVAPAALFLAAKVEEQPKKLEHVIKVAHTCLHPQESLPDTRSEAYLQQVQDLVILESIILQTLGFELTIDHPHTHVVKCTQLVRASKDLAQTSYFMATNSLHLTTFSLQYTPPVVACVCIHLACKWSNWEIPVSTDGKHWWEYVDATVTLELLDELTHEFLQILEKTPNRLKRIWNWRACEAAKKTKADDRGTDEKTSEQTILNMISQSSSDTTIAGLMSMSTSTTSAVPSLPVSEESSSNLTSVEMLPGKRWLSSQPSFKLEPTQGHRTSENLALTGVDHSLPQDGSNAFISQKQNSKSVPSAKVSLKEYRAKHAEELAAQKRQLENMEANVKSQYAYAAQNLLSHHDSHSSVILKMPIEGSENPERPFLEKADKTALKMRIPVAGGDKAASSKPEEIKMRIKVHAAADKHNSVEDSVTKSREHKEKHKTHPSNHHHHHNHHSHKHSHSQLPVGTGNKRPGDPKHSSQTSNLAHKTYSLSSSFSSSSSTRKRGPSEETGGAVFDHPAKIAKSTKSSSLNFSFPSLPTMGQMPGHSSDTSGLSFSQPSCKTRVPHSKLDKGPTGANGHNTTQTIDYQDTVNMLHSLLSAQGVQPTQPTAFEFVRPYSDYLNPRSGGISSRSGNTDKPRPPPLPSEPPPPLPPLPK

SMILES | IC50 (CDK9/CyclinT1) [nM] | IC50 (CDK1/CyclinB) [nM] | IC50 (CDK2/CyclinE1) [nM]
CC(C)NS(=O)(=O)c1ccc(Nc2ncc(C#N)c(OC3CCCCC3O)n2)cc1 (single isomer, unassigned) [Example 30b] | ≥ 1000 | 100 to 1000 | 10 to 100
CC(C)NS(=O)(=O)c1ccc(Nc2ncc(C#N)c(OC3CCC(O)C3)n2)cc1 (single isomer, unassigned) [Example 29a] | 100 to 1000 | 100 to 1000 | < 10
C[C@@H]1CCCCN1c1nc(Nc2ccc(S(N)(=O)=O)cc2)ncc1F [Example 87] |  | 10 to 100 | < 10
N#Cc1cnc(Nc2ccc(S(N)(=O)=O)cc2)nc1OC1CCCC1CO (single isomer, unassigned) [Example 18a] | 100 to 1000 | 100 to 1000 | 10 to 100
[2H]C([2H])([2H])NS(=O)(=O)c1ccc(Nc2ncc(CC)c(OC3CCCC3O)n2)cc1 (single isomer, unassigned) [Example 149b] | 100 to 1000 | 100 to 1000 | 10 to 100
[2H]C([2H])([2H])NS(=O)(=O)c1ccc(Nc2ncc(C(F)(F)F)c(OC3CCCC3O)n2)cc1 (single isomer, unassigned) [Example 109b] | 100 to 1000 | 100 to 1000 | 10 to 100
C[C@]1(O)CCC[C@H]1Oc1nc(NC2CCN(S(C)(=O)=O)CC2)ncc1C#N (relative stereo) [Example 3a, cis-4-((2-hydroxy-2-methylcyclopentyl)oxy)-2-((1-(methylsulfonyl)piperidin-4-yl)amino)pyrimidine-5-carbonitrile] | ≥ 1000 | 100 to 1000 | 10 to 100
CC1CCCC(O)C1Oc1nc(Nc2ccc(S(N)(=O)=O)cc2)ncc1C(F)(F)F (single isomer, unassigned) [Example 112b] | 100 to 1000 | 100 to 1000 | < 10
N#Cc1cnc(Nc2ccc(S(N)(=O)=O)cc2)nc1OCC1CCCCC1 [Example 13] |  | 10 to 100 | 10 to 100
NS(=O)(=O)c1ccc(Nc2ncc(C(F)(F)F)c(O[C@@H]3CCC[C@@H]3O)n2)cc1 (single isomer, unassigned) [Example 99b, cis-4-((4-((2-hydroxycyclopentyl)oxy)-5-(trifluoromethyl)pyrimidin-2-yl)amino)benzenesulfonamide] | 100 to 1000 | 10 to 100 | < 10
NS(=O)(=O)c1ccc(Nc2ncc(C(F)(F)F)c(OC3CCOCC3O)n2)cc1 (single isomer, unassigned) [Example 114b] | 100 to 1000 | 100 to 1000 | 10 to 100
CC(C)NS(=O)(=O)c1ccc(Nc2ncc(C(F)(F)F)c(OC3CCCC3O)n2)cc1 (single isomer, unassigned) [Example 106b] | 100 to 1000 | 10 to 100 | < 10
CNS(=O)(=O)c1ccc(Nc2ncc(C(F)(F)F)c(O[C@H]3CCOC[C@H]3O)n2)cc1 (single isomer, unassigned) [Example 100b, cis-4-((4-((3-hydroxytetrahydro-2H-pyran-4-yl)oxy)-5-(trifluoromethyl)pyrimidin-2-yl)amino)-N-(methyl-d3)benzenesulfonamide] | 100 to 1000 |  | 
N#Cc1cnc(Nc2ccc(S(N)(=O)=O)cc2)nc1OCC1CCCC1O (single isomer, unassigned) [Example 19b] | 100 to 1000 | 10 to 100 | < 10
CC(C)NS(=O)(=O)c1ccc(Nc2ncc(C3CC3)c(O[C@@H]3CCC[C@@H]3O)n2)cc1 (single isomer, unassigned) [Example 134b, cis-4-((5-cyclopropyl-4-((2-hydroxycyclopentyl)oxy)pyrimidin-2-yl)amino)-N-isopropylbenzenesulfonamide] | 100 to 1000 | 100 to 1000 | 10 to 100
CS(=N)(=O)c1ccc(Nc2ncc(C#N)c(N3CCCCC3)n2)cc1 (stereo not drawn) [Example 90] |  | 100 to 1000 | 10 to 100
[2H]C([2H])([2H])NS(=O)(=O)c1ccc(Nc2ncc(C(F)(F)F)c(O[C@H]3CCOC[C@H]3O)n2)c(F)c1 (single isomer, unassigned) [Example 101b, cis-3-fluoro-4-((4-((3-hydroxytetrahydro-2H-pyran-4-yl)oxy)-5-(trifluoromethyl)pyrimidin-2-yl)amino)-N-(methyl-d3)benzenesulfonamide] |  |  | 10 to 100
[2H]C([2H])([2H])NS(=O)(=O)c1ccc(Nc2ncc(C(=C)F)c(O[C@@H]3CCC[C@@H]3O)n2)cc1 (single isomer, unassigned) [Example 135b, cis-4-((5-(1-fluorovinyl)-4-((2-hydroxycyclopentyl)oxy)pyrimidin-2-yl)amino)-N-(methyl-d3)benzenesulfonamide] |  | 100 to 1000 | 10 to 100
N#Cc1cnc(Nc2ccc(S(N)(=O)=O)cc2)nc1N1CCCC(c2ccccc2)C1 (racemic) [Example 84] |  | 10 to 100 | 10 to 100
CC1(COc2nc(NC3CCN(S(=O)(=O)c4cn[nH]c4)CC3)ncc2C#N)CCCC1 [Example 8, 2-((1-((1H-pyrazol-4-yl)sulfonyl)piperidin-4-yl)amino)-4-((1-methylcyclopentyl)methoxy)pyrimidine-5-carbonitrile] | 100 to 1000 |  | 
[2H]C([2H])([2H])NS(=O)(=O)c1ccc(Nc2ncc(CC)c(OC3COCC3(C)O)n2)cc1 (single isomer, unassigned) [Example 150b] |  | ≥ 1000 | 100 to 1000

Continued, values first:

IC50 (CDK9/CyclinT1) [nM] | IC50 (CDK1/CyclinB) [nM] | IC50 (CDK2/CyclinE1) [nM] | SMILES
100 to 1000 |  |  | C=C(F)c1cnc(Nc2ccc(S(=O)(=O)NC)cc2)nc1O[C@@H]1CCC[C@@H]1O (single isomer, unassigned) [Example 135b, cis-4-((5-(1-fluorovinyl)-4-((2-hydroxycyclopentyl)oxy)pyrimidin-2-yl)amino)-N-(methyl-d3)benzenesulfonamide]
100 to 1000 | 100 to 1000 | < 10 | CC1(NS(=O)(=O)c2ccc(Nc3ncc(Br)c(O[C@@H]4CCC[C@@H]4O)n3)cc2)COC1 (single isomer, unassigned) [Example 131b, cis-4-((5-bromo-4-((2-hydroxycyclopentyl)oxy)pyrimidin-2-yl)amino)-N-(3-methyloxetan-3-yl)benzenesulfonamide]
≥ 1000 | 100 to 1000 | 10 to 100 | CC1(O)CCCC1Oc1nc(NC2CCN(S(=O)(=O)CF)CC2)ncc1C#N (single isomer, unassigned) [Example 37b]
10 to 100 | 10 to 100 | < 10 | C[C@@H]1C[C@H](O)CCN1c1nc(Nc2ccc(S(N)(=O)=O)cc2)ncc1C#N [Example 75]
10 to 100 | < 10 | < 10 | CC1CCCC1Oc1nc(Nc2ccc(S(N)(=O)=O)cc2)ncc1C#N (stereo not drawn) [Example 11]
 | 100 to 1000 | 10 to 100 | CO[C@H]1CCCN(c2nc(Nc3ccc(S(N)(=O)=O)cc3)ncc2C#N)C1 [Example 80]
100 to 1000 | 10 to 100 | < 10 | N#Cc1cnc(Nc2ccc(S(N)(=O)=O)cc2)nc1N1CCC[C@H](CO)C1 [Example 78]
≥ 1000 | ≥ 1000 | 10 to 100 | [2H]C([2H])([2H])NS(=O)(=O)c1ccc(Nc2ncc(Cl)c(OC3COCC3(C)O)n2)cc1 (single isomer, unassigned) [Example 140b]
≥ 1000 | 100 to 1000 | 10 to 100 | [2H]C([2H])([2H])NS(=O)(=O)c1ccc(Nc2ncc(C(F)(F)F)c(OC3COCCC3O)n2)cc1 (single isomer, unassigned) [Example 117b]
≥ 1000 | 100 to 1000 | 10 to 100 | Cn1cc(S(=O)(=O)N2CCC(Nc3ncc(Br)c(OC4CCCCC4O)n3)CC2)cn1 (single isomer, unassigned) [Example 144a]
100 to 1000 | 100 to 1000 | 10 to 100 | C[C@@H]1C[C@@H](O)CCN1c1nc(Nc2ccc(S(N)(=O)=O)cc2)ncc1C#N [Example 76]
100 to 1000 | 10 to 100 | < 10 | CNS(=O)(=O)c1ccc(Nc2ncc(Cl)c(OC3CCCC3O)n2)cc1 (single isomer, unassigned) [Example 137b]
100 to 1000 | 100 to 1000 | 10 to 100 | CS(=O)(=O)N1CCC(Nc2ncc(C(F)(F)F)c(OC3CCCCCC3O)n2)CC1 (single isomer, unassigned) [Example 121b]
≥ 1000 | 100 to 1000 | 10 to 100 | CCS(=O)(=O)N1CCC(Nc2ncc(C#N)c(OC3CCCC3(C)O)n2)CC1 (single isomer, unassigned) [Example 36a]
≥ 1000 | 100 to 1000 | < 10 | CNS(=O)(=O)c1ccc(Nc2ncc(C#N)c(OC3CCCC3(C)O)n2)cc1 (single isomer, unassigned) [Example 34b]
100 to 1000 | 10 to 100 | < 10 | NS(=O)(=O)c1ccc(Nc2ncc(Br)c(OC3CCCC3O)n2)cc1 (single isomer, unassigned) [Example 141b]
100 to 1000 | 100 to 1000 | < 10 | [2H]C1([2H])CC(O)C(Oc2nc(Nc3ccc(S(=O)(=O)NC([2H])([2H])[2H])cc3)ncc2C(F)(F)F)C1 (single isomer, unassigned) [Example 110b]
 | 100 to 1000 | 10 to 100 | [2H]C([2H])([2H])NS(=O)(=O)c1ccc(Nc2ncc(C(F)(F)F)c(O[C@H]3CCOC[C@H]3O)n2)cc1 (single isomer, unassigned) [Example 100b, cis-4-((4-((3-hydroxytetrahydro-2H-pyran-4-yl)oxy)-5-(trifluoromethyl)pyrimidin-2-yl)amino)-N-(methyl-d3)benzenesulfonamide]
 | 10 to 100 | < 10 | C[C@H]1CCCCN1c1nc(Nc2ccc(S(N)(=O)=O)cc2)ncc1F [Example 88]
 | 100 to 1000 | 10 to 100 | N#Cc1cnc(Nc2ccc(S(N)(=O)=O)cc2)nc1OCC1(O)CCCCC1 [Example 16]
